Measurements from patent US6369069B1 (Aventis Pharma Deutschland GmbH, priority 1998, dated 2002).

System: Na^+-dependent Cl^−/HCO3^− exchanger (NCBE)
Assay: Inhibition of the Na+-dependent Cl−/HCO3− exchanger (NCBE) in human endothelial cells (pHi recovery, BCECF fluorescence, FLIPR)
Assay type: cell-based
Details: 10 μM
Description: Inhibition of the Na^+-dependent Cl^−/HCO3^− exchanger (NCBE) in human endothelial cells
Human endothelial cells (ECV-304) were detached form culture flasks with the aid of trypsin/EDTA buffer (0.05/0.02% in phosphate buffer) and, after centrifugation (100 g, 5 min), taken up in a buffered saline solution (mmol/l: 115 NaCl, 20 NH4Cl, 5 KCl, 1 CaCl2, 1 MgSO4, 20 N-(2-hydroxyethyl)-piperazine-N[…]-2-ethanesulfonic acid (HEPES), 5 glucose and 1 g/l of bovine serum albumin; pH 7.4). This cell suspension was incubated at 37 °C. for 20 min with 5 μM BCECF acetoxymethyl ester. The cells were then washed and resuspended in a sodium- and bicarbonate-free buffer solution (mmol/l: 5 HEPES, 133.8 choline chloride, 4.7 KCl, 1.25 MgCl2, 0.97 K2HPO4, 0.23 KH2PO4, 5 glucose; pH 7.4).
For the subsequent fluorescence measurement in the FLIPR (Fluorescent Imaging Plate Reader), 100 μl of this cell suspension in each case containing 20,000 cells were added by pipette per well of a 96-well microtiter plate and this microtiter plate was centrifuged (100 g, 5 min). In the FLIPR, 100 μl of buffer solution in each case were then removed from a further prepared microtiter plate and added by pipette to each of the 96 wells of the measuring plate. In this case, for a 100% control, i.e. a recovery of the intracellular pH (pHi) by means of the NCBE, a bicarbonate- and sodium-containing buffer solution (mmol/l: 5 HEPES, 93.8 NaCl, 40 NaHCO3, 4.7 KCl, 1.25 CaCl2, 1.25 MgCl2, 0.97 Na2HPO4, 0.23 NaH2PO4, 5 glucose; pH 7.4) which contained 50 μM HOE 642 was used. For a 0% control, i.e. no pHi recovery at all, a bicarbonate-free, sodium-containing buffer solution (mmol/l: 5 HEPES, 133.8 NaCl, 4.7 KCl, 1.25 CaCl2, 1.25 MgCl2, 0.97 Na2HPO4, 0.23 NaH2PO4, 5 glucose; pH 7.4) to which 50 μM HOE 642 were also added was employed. The compounds according to the invention were added in various concentrations of the sodium- and bicarbonate-containing solution. After addition of the buffer solutions to the dye-loaded acidified cells situated in the measuring plate, the increase in the fluorescence intensity which corresponded to an increase in the pHi was determined in each well of the microtiter plate.
The kinetics were in this case recorded at 35° C. over a period of 2 minutes. The increase in the fluorescence intensities for different concentrations of the compounds according to the invention was related to the two controls and from this the inhibitory action of the substances was determined.

| Compound | Residual activity % of the NCBE at 10 μM [%] |
| --- | --- |
| COc1cccc(CN(Cc2ccc(-c3ccccc3S(=O)(=O)NC#N)cc2)C(=O)c2cc3ccccc3s2)c1 [Example 76] | 87.3 |
| N#CNS(=O)(=O)c1ccccc1-c1ccc(CN(Cc2ccc3c(c2)OCO3)C(=O)c2cc3ccccc3s2)cc1 [Example 77] | 81.8 |
| C[C@H](c1ccccc1)N(Cc1ccc(-c2ccccc2S(=O)(=O)NC#N)cc1)C(=O)c1cc2ccccc2s1 [Example 78] | 88.5 |
| N#CNS(=O)(=O)c1ccccc1-c1ccc(CN(Cc2ccc(C(F)(F)F)cc2)C(=O)c2cc3ccccc3s2)cc1 [Example 79] | 61.7 |
| COc1ccc(CCN(Cc2ccc(-c3ccccc3S(=O)(=O)NC#N)cc2)C(=O)c2cc3ccccc3s2)cc1 [Example 80] | 66.7 |
| N#CNS(=O)(=O)c1ccccc1-c1ccc(CN(Cc2ccccc2Cl)C(=O)c2cccs2)cc1 [Example 81] | 36.0 |
| CC(C)CN(Cc1ccc(-c2ccccc2S(=O)(=O)NC#N)cc1)C(=O)c1cccs1 [Example 82] | 99.8 |
| C[C@@H](c1ccccc1)N(Cc1ccc(-c2ccccc2S(=O)(=O)NC#N)cc1)C(=O)c1cccs1 [Example 83] | 97.5 |
| COc1ccccc1CN(Cc1ccc(-c2ccccc2S(=O)(=O)NC#N)cc1)C(=O)c1cccs1 [Example 84] | 54.7 |
| Cc1ccc(CN(Cc2ccc(-c3ccccc3S(=O)(=O)NC#N)cc2)C(=O)c2cccs2)cc1 [Example 85] | 51.1 |
| COc1cccc(CN(Cc2ccc(-c3ccccc3S(=O)(=O)NC#N)cc2)C(=O)c2cccs2)c1 [Example 86] | 57.0 |
| N#CNS(=O)(=O)c1ccccc1-c1ccc(CN(Cc2ccc3c(c2)OCO3)C(=O)c2cccs2)cc1 [Example 87] | 54.8 |
| N#CNS(=O)(=O)c1ccccc1-c1ccc(CN(Cc2ccc(C(F)(F)F)cc2)C(=O)c2cccs2)cc1 [Example 89] | 67.6 |
| COc1ccc(CCN(Cc2ccc(-c3ccccc3S(=O)(=O)NC#N)cc2)C(=O)c2cccs2)cc1 [Example 90] | 84.2 |
| N#CNS(=O)(=O)c1ccccc1-c1ccc(CN(Cc2ccccc2Cl)C(=O)c2ccccc2F)cc1 [Example 91] | 62.7 |
| C[C@@H](c1ccccc1)N(Cc1ccc(-c2ccccc2S(=O)(=O)NC#N)cc1)C(=O)c1ccccc1F [Example 93] | 92.9 |
| COc1ccccc1CN(Cc1ccc(-c2ccccc2S(=O)(=O)NC#N)cc1)C(=O)c1ccccc1F [Example 94] | 87.7 |
| Cc1ccc(CN(Cc2ccc(-c3ccccc3S(=O)(=O)NC#N)cc2)C(=O)c2ccccc2F)cc1 [Example 95] | 74.7 |
| C[C@H](c1ccccc1)N(Cc1ccc(-c2ccccc2S(=O)(=O)NC#N)cc1)C(=O)c1ccccc1F [Example 98] | 98.0 |
| N#CNS(=O)(=O)c1ccccc1-c1ccc(CN(Cc2ccc(C(F)(F)F)cc2)C(=O)c2ccccc2F)cc1 [Example 99] | 89.6 |
| COc1ccc(CCN(Cc2ccc(-c3ccccc3S(=O)(=O)NC#N)cc2)C(=O)c2ccccc2F)cc1 [Example 100] | 94.1 |
| N#CNS(=O)(=O)c1ccccc1-c1ccc(CN(Cc2ccccc2Cl)C(=O)c2ccccc2Cl)cc1 [Example 101] | 62.6 |
| COc1cccc(CN(Cc2ccc(-c3ccccc3S(=O)(=O)NC#N)cc2)C(=O)c2ccccc2Cl)c1 [Example 106] | 98.9 |
| N#CNS(=O)(=O)c1ccccc1-c1ccc(CN(Cc2ccc3c(c2)OCO3)C(=O)c2ccccc2Cl)cc1 [Example 107] | 96.4 |

| Compound | Residual activity % of the NCBE at 10 μM [%] |
| --- | --- |
| C[C@H](c1ccccc1)N(Cc1ccc(-c2ccccc2S(=O)(=O)NC#N)cc1)C(=O)c1ccccc1Cl [Example 108] | 87.7 |
| N#CNS(=O)(=O)c1ccccc1-c1ccc(CN(Cc2ccc(C(F)(F)F)cc2)C(=O)c2ccccc2Cl)cc1 [Example 109] | 75.4 |
| N#CNS(=O)(=O)c1ccccc1-c1ccc(CN(Cc2ccccc2Cl)C(=O)C(c2ccccc2)c2ccccc2)cc1 [Example 111] | 80.5 |
| CC(C)CN(Cc1ccc(-c2ccccc2S(=O)(=O)NC#N)cc1)C(=O)C(c1ccccc1)c1ccccc1 [Example 112] | 90.4 |
| C[C@@H](c1ccccc1)N(Cc1ccc(-c2ccccc2S(=O)(=O)NC#N)cc1)C(=O)C(c1ccccc1)c1ccccc1 [Example 113] | 94.6 |
| COc1ccccc1CN(Cc1ccc(-c2ccccc2S(=O)(=O)NC#N)cc1)C(=O)C(c1ccccc1)c1ccccc1 [Example 114] | 81.7 |
| Cc1ccc(CN(Cc2ccc(-c3ccccc3S(=O)(=O)NC#N)cc2)C(=O)C(c2ccccc2)c2ccccc2)cc1 [Example 115] | 84.0 |
| C[C@H](c1ccccc1)N(Cc1ccc(-c2ccccc2S(=O)(=O)NC#N)cc1)C(=O)C(c1ccccc1)c1ccccc1 [Example 118] | 95.3 |
| N#CNS(=O)(=O)c1ccccc1-c1ccc(CN(Cc2ccc(C(F)(F)F)cc2)C(=O)C(c2ccccc2)c2ccccc2)cc1 [Example 119] | 75.7 |
| COc1ccc(CCN(Cc2ccc(-c3ccccc3S(=O)(=O)NC#N)cc2)C(=O)C(c2ccccc2)c2ccccc2)cc1 [Example 120] | 81.3 |
| N#CNS(=O)(=O)c1ccccc1-c1ccc(CN(Cc2ccccc2Cl)C(=O)Cc2ccccc2)cc1 [Example 121] | 72.1 |
| CC(C)CN(Cc1ccc(-c2ccccc2S(=O)(=O)NC#N)cc1)C(=O)Cc1ccccc1 [Example 122] | 90.6 |
| C[C@@H](c1ccccc1)N(Cc1ccc(-c2ccccc2S(=O)(=O)NC#N)cc1)C(=O)Cc1ccccc1 [Example 123] | 72.2 |
| COc1ccccc1CN(Cc1ccc(-c2ccccc2S(=O)(=O)NC#N)cc1)C(=O)Cc1ccccc1 [Example 124] | 46.5 |
| Cc1ccc(CN(Cc2ccc(-c3ccccc3S(=O)(=O)NC#N)cc2)C(=O)Cc2ccccc2)cc1 [Example 125] | 63.6 |
| COc1cccc(CN(Cc2ccc(-c3ccccc3S(=O)(=O)NC#N)cc2)C(=O)Cc2ccccc2)c1 [Example 126] | 53.7 |
| N#CNS(=O)(=O)c1ccccc1-c1ccc(CN(Cc2ccc3c(c2)OCO3)C(=O)Cc2ccccc2)cc1 [Example 127] | 61.7 |
| C[C@H](c1ccccc1)N(Cc1ccc(-c2ccccc2S(=O)(=O)NC#N)cc1)C(=O)Cc1ccccc1 [Example 128] | 61.4 |
| N#CNS(=O)(=O)c1ccccc1-c1ccc(CN(Cc2ccc(C(F)(F)F)cc2)C(=O)Cc2ccccc2)cc1 [Example 129] | 47.4 |
| COc1ccc(CCN(Cc2ccc(-c3ccccc3S(=O)(=O)NC#N)cc2)C(=O)Cc2ccccc2)cc1 [Example 130] | 77.8 |
| N#CNS(=O)(=O)c1ccccc1-c1ccc(CN(Cc2ccccc2Cl)C(=O)C(C(=O)Cc2ccccc2)c2ccccc2)cc1 (centres unmarked) [Example 131] | 97.6 |
| C[C@@H](c1ccccc1)N(Cc1ccc(-c2ccccc2S(=O)(=O)NC#N)cc1)C(=O)Cc1cccs1 [Example 132] | 63.8 |
| C[C@H](c1ccccc1)N(Cc1ccc(-c2ccccc2S(=O)(=O)NC#N)cc1)C(=O)Cc1cccs1 [Example 133] | 40.9 |
